# Measurements from article PMC6814738, “Bacterial MgrB peptide activates chemoreceptor Fpr3 in mouse accessory olfactory system and drives avoidance behaviour” (Nature Communications, 2019).
# Peptide text beside a SMILES is read from it. * marks the point of attachment. For = O=C*
# How the values were obtained:
# mouse Fpr3 (Fpr-rs1) [1] = target: T1, mouse Fpr3 (Fpr-rs1) (Mus musculus, UniProt O08790); test: Concentration-response Ca2+ imaging of Fpr3-transfected HEK293T cells (Fig. 2f, h, j); type: cell-based; details: for EC50: Ca2+ responses of Fpr3-transfected HEK293T, Fluo-4/AM, FLIPR, buffer C1 pH 7.2, Fig. 2f, h, j
# T1 construct: expressed in transfected cells; host or cells: HEK293T (DSMZ # ACC-635), transient transfection with jetPEI
# T1 sequence (O08790 1-351): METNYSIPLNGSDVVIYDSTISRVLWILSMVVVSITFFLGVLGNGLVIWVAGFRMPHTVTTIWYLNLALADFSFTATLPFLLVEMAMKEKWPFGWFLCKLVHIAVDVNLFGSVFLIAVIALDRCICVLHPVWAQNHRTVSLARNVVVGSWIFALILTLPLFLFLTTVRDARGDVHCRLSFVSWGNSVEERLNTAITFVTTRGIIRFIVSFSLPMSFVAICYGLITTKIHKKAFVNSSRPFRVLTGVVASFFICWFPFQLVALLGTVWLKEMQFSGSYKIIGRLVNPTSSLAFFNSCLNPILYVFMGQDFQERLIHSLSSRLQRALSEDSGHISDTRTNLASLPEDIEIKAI
# Protocol: (§1) An Fpr3 gene subcloned from genomic DNA of C57BL/6J mice into pcDNA3.1 (Invitrogen) was used in heterologous experiments[21],[80]. HEK293T (DSMZ # ACC-635) cells were seeded at 20–30% confluence on poly-D-lysine-coated (10 µg/ml in PBS) black 96-well µCLEAR-Plates (Greiner Bio-One). Cells were transfected 24 h later using jetPEI™ (Polyplus-transfection SA) according to the manufacturer’s protocol for 96-well transfections. For Ca^2+ imaging experiments, 0.125 µg of DNA plasmid encoding Fpr3 were cotransfected with equal amounts of a plasmid encoding Gα16, a promiscuous G protein α-subunit. Ca^2+ signals to agonist stimulation were recorded 48 h post transfection using the Ca^2+ indicator dye Fluo-4/AM (Molecular Probes) and a fluorescence imaging plate reader (FLIPR) system (Molecular Devices).
# We used custom-made peptides with a length of 6–21 amino acids to screen for agonists. Sequences of fMet peptides were designed according to motifs present at the N-termini of 15,125 specific bacterial proteins as annotated in UniProt. Peptides were chemically synthesised, purified, and verified by mass spectroscopy (MALDI-TOF) by commercial suppliers. […] Source, sequence and purity of each peptide are listed in Supplementary Data 1. Lyophilised peptides were routinely dissolved in the Ca^2+ imaging assay buffer C1 (130 mM NaCl, 10 mM HEPES, 5 mM KCl, 2 mM CaCl2, 5 mM glucose, pH 7.2) as 0.2–1 mM stock solutions and kept in small aliquots at −20 °C until use.
# mouse Fpr3 (Fpr-rs1) [2] = target: T1, mouse Fpr3 (Fpr-rs1); test: Heterologous expression / high-throughput Ca2+ imaging agonist screen and sequence selectivity of Fpr3 (Fig. 1a, 2c-e, 2g, 2i); type: cell-based; details: 10 µM; Fpr3-transfected HEK293T; Fig. 2g
# Protocol: as §1, with “Devices). Cotransfection of a plasmid encoding Gα16 with an empty vector used to subclone Fpr3 gave no agonist-evoked Ca^2+ responses.” for “Devices).”
# We used custom-made peptides with a length of 6–21 amino acids to screen for agonists. Sequences of fMet peptides were designed according to motifs present at the N-termini of 15,125 specific bacterial proteins as annotated in UniProt. Peptides were chemically synthesised, purified, and verified by mass spectroscopy (MALDI-TOF) by commercial suppliers. Purity of all peptides was >95%. Source, sequence and purity of each peptide are listed in Supplementary Data 1. Lyophilised peptides were routinely dissolved in the Ca^2+ imaging assay buffer C1 (130 mM NaCl, 10 mM HEPES, 5 mM KCl, 2 mM CaCl2, 5 mM glucose, pH 7.2) as 0.2–1 mM stock solutions and kept in small aliquots at −20 °C until use. […] The sequences of these peptides exist in proteins from the following bacterial strains[21]: Psychromonas ingrahamii that belongs to a marine ice water microbial community, Desulfotomaculum reducens that is found in deep freshwater lakes, and Pseudomonas grimontii, a plant pathogen. As mice are unlikely to encounter these strains in their natural habitat, these findings are probably not of biological relevance.
Molecule,"signals in concentration-response, in words (mouse Fpr3 (Fpr-rs1) [1]; Fpr3-transfected HEK293T, Fig. 2h)","Fpr3 activation by MgrB 9-, 12- and 21-residue variants, in words (mouse Fpr3 (Fpr-rs1) [2])",EC50 (mouse Fpr3 (Fpr-rs1) [1])
f-MKKFRWVVLGIVVVVCLLLWAQ [21-mer peptide],No signals were obtained,failed to activate Fpr3,–
CC[C@H](C)[C@H](NC(=O)CNC(=O)[C@H](CC(C)C)NC(=O)[C@@H](NC(=O)[C@@H](NC(=O)[C@H](Cc1c[nH]c2ccccc12)NC(=O)[C@H](CCCNC(=N)N)NC(=O)[C@H](Cc1ccccc1)NC(=O)[C@H](CCCCN)NC(=O)[C@H](CCCCN)NC(=O)[C@H](CCSC)NC=O)C(C)C)C(C)C)C(=O)N[C@H](C(=O)O)C(C)C (For-MKKFRWVVLGIV-OH),–,–,210 nM
CC[C@H](C)[C@H](NC(=O)[C@H](CO)NC(=O)[C@H](Cc1c[nH]c2ccccc12)NC(=O)[C@H](CCCCN)NC(=O)[C@H](Cc1ccccc1)NC(=O)[C@H](CCCCN)NC(=O)[C@H](CCCCN)NC(=O)[C@H](CCSC)NC=O)C(=O)O (For-MKKFKWSI-OH),–,–,800 nM
